According to patent publication US20190388377A1, “COMPOSITIONS AND METHODS FOR THE TREATMENT OF LIVER DISEASES AND DISORDERS” (AXCELLA HEALTH INC., priority 2018, published 2019):

How the values were obtained:
Assay type in all cases: cell-based, human
[1] = system: Albumin; assay: Albumin secretion after 72 h by ELISA, PHH model, Example 2; conditions: FFA+TNFα
Procedure: PHH from two healthy human donors (Lonza, TRL) were seeded on day 0 at density of 6e04 cells in 96 well optical microplates (Thermofisher) in hepatocyte plating media (William's E medium, WEM) (Gibco) supplemented with 10% heat-inactivated FBS (Atlanta Bio), 2 mM Glutamax (Gibco), and 0.2% Primocin (InVivoGen) and incubated for 6 hours at 37° C., 5% CO2. After 6 hours, cells were washed twice and incubated overnight at 37° C., 5% CO2 with Hepatocytes defined medium (Corning) supplemented with 2 mM Glutamax (Gibco), and 1× Penicillin/Streptomycin. On day 1, cells were washed twice and incubated for 24 h in the hepatocyte culture media in the same conditions described above.
On day 2, cells were washed twice with DPBS 1× (Gibco) to remove excess amino acids and maintained in pretreatment media (1×HMDB, a defined custom amino acid concentration based on the mean physiological concentrations in blood, in WEM±supplemental amino acids): • a. Amino acid-free WEM (US Biologicals) supplemented with 11 mM Glucose (Sigma), 0.272 mM Sodium Pyruvate (Sigma), 1× P/S (Gibco) and containing 1×HMDB with no supplemental amino acids; or • b. The same media described above 1×HMDB WEM with supplemental amino acid and amino acid combination treatments at various concentrations. Cells were maintained in the defined media (a. & b.) for 24 hours at 37° C., 5% CO2. The HMDB values are published in the Human Metabolome Database (Wishart D S, Tzur D, Knox C, et al., HMDB: the Human Metabolome Database. Nucleic Acids Res. 2007 January; 35 (Database issue):D521-6. 17202168; which is hereby incorporated by reference in its entirety). Co-Treatment with Free Fatty Acids and Amino Acids Combination
After 24 h pre-treatment, cells maintained in the pretreatment media±supplemental amino acids (section (a. & b.) described above) were exposed to free fatty acids (FFA) at 250 uM with a ratio of 2:1 (Oleate:Palmitate) supplemented with TNF-α (Thermofisher) at 1 ng/ml. Cells were incubated with the FFAs mixture (FFAs+TNF-α)±supplemental amino acids treatments for 24 hours at 37° C., 5% CO2. After 24 hours incubation, media was removed for cytokine analysis and replaced by fresh media containing the same conditions described above (FFAs mixture±supplemental amino acids treatments). Cells were incubated for an additional 48 hours for a total of 72 hours of FFA and TNF-α stimulation. After 72 hours of incubation, media was removed for albumin and urea analysis and the cells were fixed for nuclei and lipid staining.
Albumin secretion was measured as a functionality test in primary human hepatocytes. Albumin was measured by ELISA (Human Albumin ELISA Quantitation set, Bethyl Laboratories) at 1/200 dilution in the sample diluent (Bethyl Laboratories). Data is reported as median fold change from control, statistical analysis was done using t-Test.

[2] = system: Procollagen III; assay: Procollagen III secretion by ELISA, TGFβ1-stimulated hepatic stellate cells, Example 4; conditions: HSC, three donors
Procedure: Primary human hepatic stellate cells were obtained from Samsara Sciences. Cells from three different donors were grown in Complete HSC Medium to ˜80% confluence in T75 or T150 flasks below passage 10 were seeded into sterile, collagen I coated, 96-well optical plastic microplates (ThermoScientific) and incubated overnight at 37° C., 5% CO2 in a humidified incubator in DMEM with 2% Fetal Bovine Serum and 1% Antimycotic. […] After 24 hours of stimulus, supernatant was removed and used to measure Procollagen III and cells were then washed and fixed with 4% paraformaldehyde for further staining. Procollagen III, an important biomarker of fibrosis was measured by ELISA (Human PCIII Elisa Kit, G-Biosciences) following the manufacturer's recommendations. Fixed cells with 4% paraformaldehyde were permeabilized with 0.1% Triton X-100 then immunostained for alpha SMA and labeled for EdU incorporation.

[3] = system: M1 macrophages; assay: Seahorse XF real-time ATP rate assay in LPS-treated M1 macrophages, Example 6
Procedure: Primary human PMBC derived macrophages were seeded on day 0 at 2.0E4 cells per well in a Seahorse […] Cell Culture Microplate V3-PS TC-Treated plate (Agilent) coated with 0.1 mg/mL Poly-D-Lysine (Trevigen) in Dulbecco's Modified Eagle Medium (DMEM) (Gibco) supplemented with penicillin-streptomycin (Gibco) and 10% heat inactivated fetal bovine serum (HI-FBS) (Atlanta Bio) and incubated overnight at 37° C., 5% CO2. On day 1, cells were washed once with 150 uL per well DPBS (Gibco) and treated with 100 uL of: • a. Amino acid free DMEM (US Biologicals) containing a defined custom amino acid concentration based on the mean physiological concentrations in blood based on values published in the Human Metabolome Database (HMDB), with 6 mM glucose, 1 mM sodium pyruvate, 10 mM HEPES (Sigma), and penicillin-streptomycin (Gibco); or • b. The same media described above with supplemental amino acid and amino acid combination treatments at various concentrations. […] Control wells were treated with 0.15 ng/mL LPS, or phosphate buffered saline (PBS). On day 3, the supernatant was collected and immediately frozen in a -80° C. freezer. Cells were analyzed for total ATP production rate, glycolytic ATP production rate, and mitochondrial ATP production rate using a commercially available kit (Agilent Seahorse XF Real-Time ATP Rate Assay Kit) according to manufacturer-supplied protocol on a Seahorse XFe instrument. A custom assay medium (amino acid free DMEM/F12 without phenol red or sodium bicarbonate (US Biologicals) containing a defined custom amino acid concentration based on the mean physiological concentrations in blood based on values published in the Human Metabolome Database (HMDB), with 10 mM XF glucose (Agilent), 1 mM XF pyruvate (Agilent), and 5 mM HEPES (Sigma) was used. Buffer factor for the custom assay medium was determined according to manufacturer-supplied protocol. Following the assay, cells were washed twice with PBS and fixed with 4% paraformaldehyde.

[4] = 30× LIRQNacSCar (7.5 mM Nac and Car) or 7.5 mM Nac vs LPS vehicle control

Q: Which “albumin secretion (in words)” value ([1]; hepatocyte donor 1) does the source give for `CC(=O)N[C@@H](CS)C(=O)O` [Nac, N-acetylcysteine] here?
A: slightly decreased albumin secretion

Q: What about the “albumin secretion (in words)” value ([1]; hepatocyte donor 2) of the same molecule?
A: induce albumin secretion

Q: What about the “procollagen III secretion (in words)” value [2] of the same molecule?
A: decreased procollagen III secretion but at a lower extent than LIRNacCar and LIRQNacSCar

Q: And the “glycolytic ATP production rate (in words)” value [3, 4]?
A: significantly decreased glycolytic, mitochondrial, and total ATP rate measurements

Q: What about the “mitochondrial ATP production rate (in words)” value [3, 4] of the same molecule?
A: significantly decreased glycolytic, mitochondrial, and total ATP rate measurements

Q: What about the “total ATP rate (in words)” value [3, 4] of the same molecule?
A: significantly decreased glycolytic, mitochondrial, and total ATP rate measurements

Q: And the “Glycolytic ATP Rate, Median Fold Change from Vehicle (Log2)” value ([3]; LPS 0.15 ng/mL, 7.5 mM)?
A: −0.461 Log2

Q: What about the “Mitochondrial ATP Rate, Median Fold Change from Vehicle (Log2)” value ([3]; LPS 0.15 ng/mL, 7.5 mM) of the same molecule?
A: −0.196 Log2

Q: And the “Total ATP Rate, Median Fold Change from Vehicle (Log2)” value ([3]; LPS 0.15 ng/mL, 7.5 mM)?
A: −0.2744 Log2
